Measured values: patent US12338456B2, “Method for increasing the specific production rate of eukaryotic cells” (Hoffmann-La Roche Inc., priority 2014, dated 2025)
“Also recorded” adds a separate entry of the source.

Experiments:
[1] = tested on: recombinant CHO-K1 cell line, called clone 1, expressing a humanized monoclonal antibody; assay: CHO fed-batch cultivation with para-, ortho- or meta-Tyr supplementation under Phe limitation conditions; type: cell-based, Chinese Hamster
Description: (§1) For all cell culture experiments a recombinant CHO-K1 cell line, called clone 1, expressing a humanized monoclonal antibody was used. The recombinant CHO-K1 cell line was generated using an L-methionine sulfoximine sensitive CHO-K1 host cell line (Lonza, Cologne, Germany). The cells were cultivated in protein free, chemically defined CD-CHO medium (Life Technologies, Darmstadt, Germany) supplemented with 50 μM L-methionine sulfoximine (Sigma Aldrich, Munich, Germany) during seed train cultivation. Seed train cultivation was performed in shake flasks using a humidified incubator, 7% CO2, and 37° C. setting. The cells were splitted every three to four days for subcultivation and culture expansion. For all experiments, cells with identical age in culture (appr. 21 generations) until start of the experiment were used.
(§2) All supplementation experiments were performed using shake flask cultivation systems, chemically defined CD-CHO medium without the selection pressure L-methionine sulfoximine and two appropriate serial continuous applied feeds (feed 1 and feed 2). Recombinant CHO-K1 cells producing a humanized monoclonal antibody were inoculated with 3×10^5 viable cells/mL and cultured for 14 days. CD-CHO base medium was sterile supplemented before inoculation with 0.1 mM, 0.3 mM or 0.4 mM of either ortho-Tyr, meta-Tyr or para-Tyr. Control cultivation with no supplementation of ortho-Tyr, meta-Tyr or para-Tyr was used as reference. Phenylalanine (Phe) non-limitation conditions were realized by increasing concentration of Phe in feed 2.
(§3) For analysis of viable and total cell densities an automated Cedex HiRes system (Roche Diagnostics, Mannheim, Germany) was used. Discrimination of viable and total cell densities were evaluated using the trypan blue exclusion staining method and analyzing more than 10 pictures per sample and day according to the manufacturer's specifications. Viable cell density (VCD) and cell viability were calculated as described in equation 1 (Equ 1) and equation 2 (Equ 2), respectively. Viable cell density=NTrypan blue negative×(10^5 viable cells/ml) (Equ 1) Cell viability=NTrypan blue negative/(NTrypan blue negative+NTrypan blue positive cells)×100% (Equ 2)
(§4) As indicator for overall biomass generation in the process a cumulative cell time integral (CTI) was calculated as followed (Equ 3). Cell time integral=Σ(0.5×(VCDn−1+VCDn)×(tn−tn−1))×(10^5 viable cells×d/ml) (Equ 3)
Lactate dehydrogenase (LDH) activity in the cell-free supernatant was analyzed using a Cobas Integra 400 plus system (Roche Diagnostics, Mannheim, Germany).
(§5) Product titer war either quantified by a Cobas Integra 400 plus system (Roche, Mannheim, Germany) according to the manufacture's protocol or by PorosA HPLC method as described previously (Zeck et al. 2012). The overall specific productivity qP was calculated for the analysis of cell production capacity according to equation 4. qP=(Titern−Titern−1)/(CTIn−CTIn−1)×(pg/(viable cell×d)) (Equ 4) Determination of Peptide Sequence Variants and Identification of Meta- and Ortho-Tyr Sequence Variants with Synthetic Peptides
In concentration screens, a 50% reduction of the […] reduction capacity of CHO cells was observed when supplemented with 0.5 mM meta-Tyr (Gurer-Orhan et al., (2006)). No data or concentration have been reported for ortho-Tyr supplementation in cell cultures to date. Using a dose-dependent cultivation approach, it was aimed to determine the relevance and tolerable concentrations of meta-Tyr and ortho-Tyr on CHO cell growth performance. For this, a CHO cultivation model described in material and methods was supplemented with either 0.1 mM, 0.3 mM or 0.4 mM para-Tyr, ortho-Tyr or meta-Tyr. We used the standard cultivation process with no supplementation as reference, following so-called “control” or “positive control”. Here, Phe will go into limitation by day 10/11.

[2] = tested on: recombinant CHO-K1 cell line, called clone 1, expressing a humanized monoclonal antibody; assay: CHO fed-batch cultivation with para-, ortho- or meta-Tyr supplementation under Phe non-limitation conditions; type: cell-based, Chinese Hamster
Description: as §1, §2, §3, §4, §5
In a second approach, the role of meta- and ortho-Tyr supplementation under Phe non-limitation conditions in CHO fed-batch cultivations was analyzed. For that, the amount of Phe in feed 2 was increased to prevent Phe limitation (FIG. 6).

CHO cells = conditions: cited from earlier work
[3] = 0.1 mM, 0.3 mM or 0.4 mM supplementation

Compound	product concentration (overall productivity, product yield) [1]	specific productivity qP (cell-specific product formation rate) [1]	increase of qP compared to control ([1]; 0.1 mM supplementation)	cumulative CTI (cell time integral, overall biomass production) [1, 3]	maximal VCD versus other cultures [1, 3]	increase of qP compared to control ([1]; 0.3 mM supplementation)	increase of qP compared to control ([1]; 0.4 mM supplementation)	impact on cell viability ([1]; fed-batch CHO cultivation)	specific productivity qP (cell-specific product formation rate) ([1]; listed as Meta-Tyr)	product titer (product yield) [2]	specific productivity qP (cell-specific product formation rate) [2]	increase of qP compared to control ([2]; 0.1 mM supplementation)	CTI versus other cultures [2, 3]	increase of qP compared to control ([2]; 0.3 mM supplementation)	increase of qP compared to control ([2]; 0.4 mM supplementation)	reduction of the MTX reduction capacity of CHO cells (CHO cells; 0.5 mM meta-Tyr) [%]	cell cytotoxicity (CHO cells; meta-Tyr supplementation of CHO cells)	final LDH activity in the supernatant ([1]; compared to control, meta-Tyr and para-Tyr supplementation)	cell viability ([1]; day 14)
N[C@@H](Cc1cccc(O)c1)C(=O)O [meta-Tyr, meta-tyrosine]	does not alter product yield	overall higher specific productivity qP	+5%	decreased cumulative CTI	dose dependent reduced maximal VCD	+26%	+36%	no significant impact	increases cell-specific product formation rate qP	does not alter product yield	overall higher specific productivity qP; also recorded: increases cell-specific product formation rate qP	+3%	dose dependent reduction in CTI	+26%	+28%	50	dose-dependent cell cytotoxicity	–	–
NC(Cc1ccccc1O)C(=O)O (stereo not drawn) [ortho-Tyr, ortho-tyrosine, reference compound]	does not alter product yield	–	–	–	–	–	–	–	–	does not alter product yield	–	–	–	–	–	–	–	higher final LDH activity in the supernatant	less than 60%
